Assay results taken from paper PMC9964651, “Discovery of Ureido-Based Apcin Analogues as Cdc20-specific Inhibitors against Cancer” (Pharmaceuticals, 2023).
Structures can show the parent of a compound that is named as a salt. Where two headings read alike, the source gives them in different places.

Experiments:
Hela = assay: In vitro antiproliferative assay (CCK-8); type: cell-based, human; settings: CCK-8, 48 h, mean ± SD
Excerpt: The experiment was repeated three times.

Mda-mb-231 = assay: In vitro antiproliferative assay (CCK-8); settings: read-out: IC50 ± SD Mda-mb-231
Procedure: (§1) Hela and MDA-MB-132 cells were grown in DMEM (Gibco) containing 10% FBS and 1% double antibody (penicillin 100 U/mL, streptomycin 100 μg/mL, Solarbio). […] All cell lines were purchased from the Xiangya Cell Bank, Central South University, Changsha, China, and incubated at 37 °C with 5% CO2 in a humidified atmosphere. […] Cytotoxicity assay was assessed using CCK-8 methods. The cells were seeded in a 96-well plate (2 × 10^3–3 × 10^3 cells/well), the 96-well plate was incubated at 37 °C with 5% CO2 in a humidified atmosphere, and the cells were grown in a monolayer; the original culture was discarded. A total of 100 μL of drug-containing medium with a specific concentration gradient was added and then cultivated for 48 h; 10 μL/well of CCK-8 solution was added, put in an incubator, and incubated for 1 h and read with a multi-function microplate reader at a wavelength of 450 nm. The inhibition rate was calculated, and the IC50 results were calculated by GraphPad Prism 7 software. The experiment was repeated three times.

Hepg2 = assay: In vitro antiproliferative assay (CCK-8); settings: read-out: IC50 ± SD Hepg2
Procedure: as §1

Mcf-7 = assay: In vitro antiproliferative assay (CCK-8); settings: read-out: IC50 ± SD Mcf-7
Procedure: as §1

four cancer-cell lines = assay: In vitro antiproliferative assay (CCK-8), cell line not given; settings: Homo sapiens, read-out: IC50 (antiproliferative activity)

Molecule	IC50 (Hela) [µM]	IC50 (Mda-mb-231; CCK-8, 48 h, mean ± SD) [µM]	IC50 (Hepg2; CCK-8, 48 h, mean ± SD) [µM]	IC50 (Mcf-7; CCK-8, 48 h, mean ± SD) [µM]	IC50 (Hela; Homo sapiens, HeLa) [µM]	IC50 (Mda-mb-231; Homo sapiens, MDA-MB-231, 48 h) [µM]	IC50 (Hepg2; Homo sapiens, HepG2, 48 h) [µM]	IC50 (Mcf-7; Homo sapiens, MCF7, 48 h) [µM]	IC50 (four cancer-cell lines) [µM]
1-phenethyl-3-(2,2,2-trichloro-1-((2,6-dichloropyrimidin-4-yl)amino)ethyl)urea [Compound 17]	60 ± 7.55	25.2 ± 10.8	> 100	> 100	–	–	–	–	–
1-phenethyl-3-(2,2,2-trichloro-1-((4,6-difluoropyrimidin-2-yl)amino)ethyl)urea [Compound 22]	31.9 ± 3.29	27.81 ± 0.17	26.13 ± 0.05	24.8 ± 9.49	–	–	–	–	–
Cc1ncc([N+](=O)[O-])n1CCNC(=O)NC(Nc1ncccn1)C(Cl)(Cl)Cl (stereo not shown) [Compound 1, 1-(2-(2-methyl-5-nitro-1H-imidazol-1-yl)ethyl)-3-(2,2,2-trichloro-1-(pyrimidin-2-ylamino)ethyl)urea]	–	–	–	–	> 100	> 100	> 100	> 100	> 80
O=C(NCCc1ccccc1)NC(Nc1ncccn1)C(Cl)(Cl)Cl (stereo not shown) [Compound 2, 1-phenethyl-3-(2,2,2-trichloro-1-(pyrimidin-2-ylamino)ethyl)urea]	–	–	–	–	86.7 ± 4.25	> 100	66.3 ± 1.91	79.3 ± 20.3	–
O=C(NC1CCCCC1)NC(Nc1ncccn1)C(Cl)(Cl)Cl (stereo not shown) [Compound 3, 1-cyclohexyl-3-(2,2,2-trichloro-1-(pyrimidin-2-ylamino)ethyl)urea]	–	–	–	–	> 100	> 100	> 100	> 100	> 80
O=C(NCCN1CCOCC1)NC(Nc1ncccn1)C(Cl)(Cl)Cl (stereo not shown) [Compound 4, 1-(2-morpholinoethyl)-3-(2,2,2-trichloro-1-(pyrimidin-2ylamino)ethyl)urea]	–	–	–	–	> 100	> 100	> 100	> 100	> 80
Cc1ccc(S(=O)(=O)NC(=O)NC(Nc2nccc(C(F)(F)F)n2)C(Cl)(Cl)Cl)cc1 (stereo not shown) [Compound 8, 4-methyl-N-((2,2,2-trichloro-1-((4-(trifluoromethyl)pyrimidin-2-yl)amino)ethyl)carbamoyl)benzenesulfonamide]	–	–	–	–	> 100	> 100	> 100	> 100	–
O=C(NCCc1ccccc1)NC(Nc1ncc(Cl)cn1)C(Cl)(Cl)Cl (stereo not shown) [Compound 9, 1-phenethyl-3-(2,2,2-trichloro-1-((5-chloropyrimidin-2-yl)amino)ethyl)urea]	–	–	–	–	> 100	> 100	> 100	> 100	–
O=C(NC(Nc1ncc(Cl)cn1)C(Cl)(Cl)Cl)NS(=O)(=O)c1ccccc1 (stereo not shown) [Compound 10, N-((2,2,2-trichloro-1-((5-chloropyrimidin-2yl)amino)ethyl)carbamoyl)benzenesul fonamide]	–	–	–	–	> 100	> 100	> 100	> 100	–
Cc1c(Cl)nc(NC(NC(=O)NS(=O)(=O)c2ccccc2)C(Cl)(Cl)Cl)nc1Cl (stereo not shown) [Compound 11, N-((2,2,2-trichloro-1-((4,6-dichloro-5-methylpyrimidin-2yl)amino)ethyl)carbamoyl)benzenesulfonamide]	–	–	–	–	> 100	> 100	> 100	> 100	–
Cc1c(Cl)nc(NC(NC(=O)NCCc2ccccc2)C(Cl)(Cl)Cl)nc1Cl (stereo not shown) [Compound 12, 1-phenethyl-3-(2,2,2-trichloro-1-((4,6-dichloro-5-methylpyrimidin-2-yl)amino)ethyl)urea]	–	–	–	–	43.5 ± 20.4	> 100	27.1 ± 5.27	27.7 ± 2.13	–
CCCNC(=O)NC(Nc1ncc([N+](=O)[O-])cn1)C(Cl)(Cl)Cl (stereo not shown) [Compound 13, 1-propyl-3-(2,2,2-trichloro-1-((5-nitropyrimidin-2-yl)amino)ethyl)urea]	–	–	–	–	> 100	> 100	> 100	> 100	–
O=C(NCCc1ccccc1)NC(Nc1ncc([N+](=O)[O-])cn1)C(Cl)(Cl)Cl (stereo not shown) [Compound 14, 1-phenethyl-3-(2,2,2-trichloro-1-((5-nitropyrimidin-2-yl)amin-o)ethyl)urea]	–	–	–	–	79.6 ± 45.2	> 100	51.8 ± 2.43	44.7 ± 7.62	–
N#Cc1cnc(NC(NC(=O)NCCc2ccccc2)C(Cl)(Cl)Cl)nc1 (stereo not shown) [Compound 15, 1-phenethyl-3-(2,2,2-trichloro-1-((5-cyanopyrimidin-2-yl)amin-o)ethyl)urea]	–	–	–	–	> 100	> 100	> 100	> 100	–
O=C(NCCc1ccccc1)NC(Nc1ncc(F)cn1)C(Cl)(Cl)Cl (stereo not shown) [Compound 16, 1-phenethyl-3-(2,2,2-trichloro-1-((5-fluoropyrimidin-2-yl)amin-no)ethyl)urea]	–	–	–	–	> 100	> 100	> 100	> 100	–
O=C(NCCc1ccccc1)NC(Nc1nc(Cl)cc(Cl)n1)C(Cl)(Cl)Cl (stereo not shown) [Compound 18, 1-phenethyl-3-(2,2,2-trichloro-1-((4,6-dichloropyrimidin-2-yl)amino)ethyl)urea, sodium salt]	–	–	–	–	36.7 ± 1.23	50.4 ± 3.07	30.59 ± 0.1	33.8 ± 1.91	–
Nc1c(Cl)nc(NC(NC(=O)OCCc2ccccc2)C(Cl)(Cl)Cl)nc1Cl (stereo not shown) [Compound 19, Phenethyl(1-((5-amino-4,6-dichloropyrimidin-2-yl)amino)-2,2,2-trichloroethyl)carbamate]	–	–	–	–	34.04 ± 0.02	68.9 ± 2.67	27.8 ± 1.85	23.5 ± 4.17	–
Nc1c(Cl)nc(NC(NC(=O)NCCN2CCOCC2)C(Cl)(Cl)Cl)nc1Cl (stereo not shown) [Compound 21, 1-(1-((5-amino-4,6-dichloropyrimidin-2-yl)-l4-azanyl)-2,2,2-trichloroethyl)-3-(2-morpholinoethyl)urea]	–	–	–	–	> 100	> 100	> 100	> 100	–
Cc1cnc(NC(NC(=O)NCCc2ccccc2)C(Cl)(Cl)Cl)nc1 (stereo not shown) [Compound 23, 1-phenethyl-3-(2,2,2-trichloro-1-((5-methylpyrimidin-2-yl)ami-no)ethyl)urea]	–	–	–	–	> 100	> 100	67.9 ± 6.74	60.4 ± 3.91	–
COC(=O)c1cnc(NC(NC(=O)NCCc2ccccc2)C(Cl)(Cl)Cl)nc1C (stereo not shown) [Compound 24, Methyl-4-methyl-2-((2,2,2-trichloro-1-(3-phenethylureido)eth-yl)amino)pyrimidine-5-carboxylate]	–	–	–	–	> 100	58.6 ± 18.4	32.4 ± 5	29.2 ± 3.46	–
Nc1nc(Cl)cc(NC(NC(=O)NCCc2ccccc2)C(Cl)(Cl)Cl)n1 (stereo not shown) [Compound 25, 1-(1-((2-amino-6-chloropyrimidin-4-yl)amino)-2,2,2-trichloroe-thyl)-3-phenethylurea]	–	–	–	–	41.6 ± 8.81	52.2 ± 0.63	32.5 ± 6.31	37.3 ± 1.63	–
Nc1cc(Cl)nc(NC(NC(=O)NCCc2ccccc2)C(Cl)(Cl)Cl)n1 (stereo not shown) [Compound 26, 1-(1-((4-amino-6-chloropyrimidin-2-yl)amino)-2,2,2-trichloroe-thyl)-3-phenethylurea]	–	–	–	–	44.7 ± 4.6	61.6 ± 11.1	32.8 ± 3.94	44.8 ± 8.78	–
Nc1nc(F)nc2c1ncn2C(NC(=O)NCCc1ccccc1)C(Cl)(Cl)Cl (stereo not shown) [Compound 28, 1-(1-(6-amino-2-fluoro-9H-purin-9-yl)-2,2,2-trichloroethyl)-3-phenethylurea]	–	–	–	–	0.17 ± 0.08	0.61 ± 0.12	0.28 ± 0.13	0.41 ± 0.05	–
Cc1ncc([N+](=O)[O-])n1CCNC(=O)NC(n1cnc2c(N)nc(F)nc21)C(Cl)(Cl)Cl (stereo not shown) [Compound 29, 1-(1-(6-amino-2-fluoro-9H-purin-9-yl)-2,2,2-trichloroethyl)-3-(2-(2-methyl-5-nitro-1H-imidazol-1-yl)ethyl)urea]	–	–	–	–	0.08 ± 0.01	0.37 ± 0.07	0.13 ± 0.05	0.23 ± 0.09	–
O=C(NCCc1ccccc1)NC(NNc1nccc(C(F)(F)F)n1)C(Cl)(Cl)Cl (stereo not shown) [Compound 30, 1-phenethyl-3-(2,2,2-trichloro-1-(2-(4-(trifluoromethyl)pyrimi-din-2-yl)hydrazinyl)ethyl)urea]	–	–	–	–	> 100	73 ± 42.7	58 ± 10.6	72.4 ± 30.9	–
